Laboratory results published in publication PMC6934184, “Selective DNA-PKcs inhibition extends the therapeutic index of localized radiotherapy and chemotherapy” (The Journal of Clinical Investigation, 2019).

Target: T1, FER (Homo sapiens, UniProt P16591)
T1 construct: purchased Thermo Fisher Scientific (Life Technologies) SelectScreen
Experiment: SelectScreen Z'LYTE
Assay type: biochemical
Method in brief: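 SelectScreen broad panel; activity (Z'LYTE, Adapta) plus binding formats. ATP: Km app for CSF1R Z'LYTE; 10 for CAMK1 Adapta. Readout = % per kinase.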

T1 sequence (P16591 whole entry): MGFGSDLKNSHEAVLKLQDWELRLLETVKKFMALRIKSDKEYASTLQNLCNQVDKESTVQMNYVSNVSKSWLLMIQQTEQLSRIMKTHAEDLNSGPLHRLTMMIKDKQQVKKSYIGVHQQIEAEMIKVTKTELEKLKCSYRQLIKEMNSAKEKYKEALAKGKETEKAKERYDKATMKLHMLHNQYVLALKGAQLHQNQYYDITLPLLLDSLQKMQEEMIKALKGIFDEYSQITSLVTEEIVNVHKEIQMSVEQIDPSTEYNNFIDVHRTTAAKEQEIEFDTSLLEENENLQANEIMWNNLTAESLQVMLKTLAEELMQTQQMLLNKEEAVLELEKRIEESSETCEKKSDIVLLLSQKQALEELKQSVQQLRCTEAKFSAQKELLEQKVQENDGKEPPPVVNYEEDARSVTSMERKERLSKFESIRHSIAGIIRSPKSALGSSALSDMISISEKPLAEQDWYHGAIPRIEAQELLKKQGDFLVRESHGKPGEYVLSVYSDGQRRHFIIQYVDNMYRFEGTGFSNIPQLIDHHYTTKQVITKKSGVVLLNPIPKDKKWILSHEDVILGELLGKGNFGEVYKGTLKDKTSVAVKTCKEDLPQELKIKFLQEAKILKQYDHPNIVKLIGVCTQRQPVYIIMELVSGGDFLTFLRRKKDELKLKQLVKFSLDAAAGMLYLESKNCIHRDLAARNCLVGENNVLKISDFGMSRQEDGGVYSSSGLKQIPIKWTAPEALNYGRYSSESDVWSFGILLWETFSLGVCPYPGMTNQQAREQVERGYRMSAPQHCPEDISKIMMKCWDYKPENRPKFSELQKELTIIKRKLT

CN(C(=O)CN1CCOCC1)c1ccc2sc3c(-c4cccc5c(=O)cc(N6CC7CCC(C6)O7)oc45)cccc3c2c1 [NU5455]
inhibition at 1 µM: 7.1%
